# Measured values published in patent US4009273A, “Substituted 10,11-dihydro-5,10-imino-[5H] dibenzo (a,d)-cycloheptene” (priority 1972, dated 1977).
# “And” between values parts separate entries of the source, which are not always exact repeats. Equal values may be shown once.
# Legend:
# [1] = system: amphetamine deaths; experiment: Amphetamine toxicity in mice; format: in vivo, mice (female); conditions: for ratio of number of dead animals to number of starting animals: mortality at 4 h
# Description: The test was effected on group of 10 female mice weighing between 18 and 22 g kept at 27° C for the duration of the test. The test products were intraperitoneally administered in different doses in a volume of 0.01 ml /g of mouse. One hour later, the mice received an injection of 15 mg/kg of a solution of 1.5 mg of amphetamine per ml of physiological serum. The mortality 4 hours after the amphetamine injection was determined and the results were expressed as a ratio of number of dead animals to number of starting animals.
# [2] = system: pentamethylenetetrazol convulsions; experiment: Anticonvulsant effect (pentamethylenetetrazol perfusion); format: in vivo, mice (female); conditions: 1 h before perfusion
# Description: The anticonvulsant activity of the compounds was determined on groups of 10 female mice with intraperitoneal administration of the test compounds in acid solution at different doses and the control group received only the solvent. One hour after the injection, the mice were perfused with a solution of pentamethylenetetrazol in physiological serum at a concentration of 3 mg/ml. The perfusion was intraveinous at a rate of 1 ml per minute and in the course of the perfusion, the progress of introxication was characterized by the following 3 criteria:
# a. Threshold of convulsant effect (myoclonia of the ears)
# b. Crisis of clonic convulsions
# c. Tonic convulsion with apnea and generally followed by death.
# [3] = system: DOPA; experiment: Potentialization of DOPA; format: in vivo, mice (male); conditions: 1 h before 50 mg/kg DOPA
# Description: In this test, DOPA [racemic β-(3,4-dihydroxyphenyl)-alanine] was administered to mice pretreated with 1-isonicotinoyl-2-isopropyl-hydrazine18 hours before the test which product caused the following symptoms: hypertonicity, agitation, crying, aggressiveness, salivation and exophthalmia. The administration of an antidepressant one hour before the DOPA injection potentializes the intensity of the effects.
# Male mice weighing between 18 to 22 g received intraperitoneally 50 mg/kg of 1-isonicotinoyl-2-isopropyl-hydrazine and 18 hours later the test product intraperitoneally in aqueous solution in increasing doses and 1 hour later received an intraperitoneal injection of 50 mg/kg of DOPA. The different effects were evaluated 15 and 30 minutes after the DOPA injection and each symptom was evaluated for each animal on a scale from 0 to 3 and the evaluations for each dose was totaled. The totals are reported in Table III as a percent of the total of control animals.
# [4] = Acute toxicity; conditions: mouse, in vivo, ip, Swiss mice, observed for a week
# Description: The acute toxicity was determined on groups of Swiss mice weighing 18 to 22 g and the test products were administered intraperitoneally in increasing doses and the animals were kept under observation for a week.
# [5] = system: reserpine ptosis of the eyelid; experiment: Antidepressant activity: antagonism of reserpine eyelid ptosis; format: in vivo, rats; conditions: 1 h before 1 mg/kg reserpine
# Description: The antidepressant activity was determined by antagonism exercised by the compounds against the depressant activity of reserpine and this effect was determined by ptosis of the eyelid test codified by Rubin [J. Pharm. Exp. Ther., Vol. 120 (1957), p. 125]. The eyelid ptosis test is used to make a quantitative evaluation of the condition of the animal, but the antagonism exercised equally against the neuro depressive symptoms of reserpine; immobility, adynamia, hypothermia, myosis, etc. The reading was effected every hour for 6 hours after intraperitoneal injection of 1 mg/kg of reserpine to groups of rats who had one hour previously received intraperitoneally a variable dose of the test compounds. The ptosis provoked by the reserpine injection was diminished by the previous injection of the test compounds, all the more so at the elevated doses. The results were expressed as a percentage of protection compared to controls which received only reserpine and are reported in Table IV.
# [6] = system: amytal sleeping time; experiment: Potentialization of sleeping time (amytal); format: in vivo, mice (female); conditions: 1 h before 80 mg/kg amytal i.v.
# Description: The potentialization of sleeping time was determined with a test using amytal [5-ethyl-5-isoamyl-barbituric acid] in which groups of female mice weighing between 18 and 22 g were kept at 25° C for the duration of the test. The test products were administered intraperitoneally at different doses one hour before intraveinous injection of 80 mg/kg of amytal and the sleeping time was noted which is the time while the reflux of straightening in the mice was negative.
# [7] = 5 mg/Kg i.p., 1 h before 15 mg/kg amphetamine
# [8] = 10 mg/Kg i.p., 1 h before 15 mg/kg amphetamine
# [9] = 20 mg/Kg i.p., 1 h before 15 mg/kg amphetamine
# [10] = head prints only "mg/Kg" (dose figure missing), i.p.
Compound,"ratio of number of dead animals to number of starting animals [1, 7]","ratio of number of dead animals to number of starting animals [1, 8]","ratio of number of dead animals to number of starting animals [1, 9]","Dose of pentamethylenetetrazol, Clonic Crisis ([2]; 0.5 mg/Kg i.p.)","Dose of pentamethylenetetrazol, Myoclonia ([2]; 0.5 mg/Kg i.p.)","Dose of pentamethylenetetrazol, Clonic Crisis ([2]; 1 mg/Kg i.p.)","Dose of pentamethylenetetrazol, Myoclonia ([2]; 1 mg/Kg i.p.)","Dose of pentamethylenetetrazol, Tonic Crisis ([2]; 1 mg/Kg i.p.)","Dose of pentamethylenetetrazol, Clonic Crisis ([2]; 2 mg/Kg i.p.)","Dose of pentamethylenetetrazol, Myoclonia ([2]; 2 mg/Kg i.p.)","Dose of pentamethylenetetrazol, Tonic Crisis ([2]; 2 mg/Kg i.p.)","Dose of pentamethylenetetrazol, Clonic Crisis ([2]; 5 mg/Kg i.p.)","Dose of pentamethylenetetrazol, Myoclonia ([2]; 5 mg/Kg i.p.)","Dose of pentamethylenetetrazol, Tonic Crisis ([2]; 5 mg/Kg i.p.)",total symptom score as percent of the total of control animals ([3]; 1 mg/Kg i.p.),total symptom score as percent of the total of control animals ([3]; 2 mg/Kg i.p.),total symptom score as percent of the total of control animals ([3]; 10 mg/Kg i.p.),LD50 at 168 h [4],average sleeping time ([6]; 5 mg/Kg i.p.),average sleeping time ([6]; 10 mg/Kg i.p.),further results
"OCCN1C2Cc3ccccc3C1c1ccccc12 (stereo not drawn) [Example 6, 12-(2'-hydroxyethyl)-10,11-dihydro-5,10-imino-[5H]-dibenzo (a,d) cycloheptene dl]",3/10,9/10 and 3/10,0/10,42.9 mg/kg,38.2 mg/kg,45.7 mg/kg,40.6 mg/kg,144.2 mg/kg,43.5 mg/kg,38.6 mg/kg,104.3 mg/kg,45.5 mg/kg,49.3 mg/kg,204.6 mg/kg,138%,155%,140%,350 mg/kg,,,"Dose of pentamethylenetetrazol, Tonic Crisis ([2]; 0.5 mg/Kg i.p.): 129.0 mg/kg"
"CNCCN1C2Cc3ccccc3C1c1ccccc12 (stereo not drawn) [Example 28, 12-(2'-methylaminoethyl)-10,11-dihydro-5,10-imino-[5H]-dibenzo (a,d) cycloheptene dl]",,,,,,,,,,,,,,,,,,~150 mg/kg,,,% Protection ([5]; 2 mg/Kg i.p.): 10%; % Protection ([5]; 10 mg/Kg i.p.): 43%; % Protection ([5]; 20 mg/Kg i.p.): 60%; % Protection ([5]; 50 mg/Kg i.p.): 84%
"CC(=O)CN1C2Cc3ccccc3C1c1ccccc12 (stereo not drawn) [Example 7, 12-acetonyl-10,11-dihydro-5,10-imino-[5H]-dibenzo (a,d) cycloheptene dl]",2/10,0/10,0/10,53.3 mg/kg,48.6 mg/kg,52.7 mg/kg,47.7 mg/kg,172.5 mg/kg,62.6 mg/kg,57.7 mg/kg,172.5 mg/kg,112.5 mg/kg,107.4 mg/kg,238.9 mg/kg,114%,135%,173%,350 mg/kg,31.3 min,51.2 min,"ratio of number of dead animals to number of starting animals [1, 10]: 0/10; Dose of pentamethylenetetrazol, Tonic Crisis ([2]; 0.5 mg/Kg i.p.): 119.2 mg/kg; total symptom score as percent of the total of control animals ([3]; 5 mg/Kg i.p.): 138%; average sleeping time ([6]; 20 mg/Kg i.p.): 82.3 min; average sleeping time ([6]; 50 mg/Kg i.p.): 107.5 min"
"CCN1C2Cc3ccccc3C1c1ccccc12 (stereo not drawn) [Example 21, 12-ethyl-10,11-dihydro-5,10-imino-[5H]-dibenzo (a,d) cycloheptene dl]",10/10,6/10,0/10,,,48.3 mg/kg,42.9 mg/kg,168.2 mg/kg,47.7 mg/kg,42.3 mg/kg,206.2 mg/kg,57.0 mg/kg,49.6 mg/kg,238.1 mg/kg,187%,175%,,,58.1 min,71.5 min,"ratio of number of dead animals to number of starting animals [1, 10]: 0/10; total symptom score as percent of the total of control animals ([3]; 5 mg/Kg i.p.): 181%; average sleeping time ([6]; 1 mg/Kg i.p.): 32.1 min; average sleeping time ([6]; 2 mg/Kg i.p.): 39.6 min"
"CN1C2Cc3ccccc3C1c1ccccc12 (stereo not drawn) [Example 15, 12-methyl-10,11-dihydro-5,10-imino-[5H]-dibenzo (a,d) cycloheptene dl]",0/10,0/10,,,,44.0 mg/kg,38.1 mg/kg,182.7 mg/kg,52.9 mg/kg,46.7 mg/kg,231.8 mg/kg,,,,,,,175 mg/kg,42.9 min,78.6 min,"ratio of number of dead animals to number of starting animals ([1]; 1 mg/Kg i.p., 1 h before 15 mg/kg amphetamine): 6/10; ratio of number of dead animals to number of starting animals ([1]; 2 mg/Kg i.p., 1 h before 15 mg/kg amphetamine): 1/10; ratio of number of dead animals to number of starting animals ([1]; 200γ/Kg i.p., 1 h before 15 mg/kg amphetamine): 10/10; ratio of number of dead animals to number of starting animals ([1]; 500γ/Kg i.p., 1 h before 15 mg/kg amphetamine): 8/10; ED50 ([1]; Mus musculus, ip, 4 h, i.p., mice, read-out: DA50 (dose which reduced by half the amphetamine deaths)): 1 mg/kg; Dose of pentamethylenetetrazol, Clonic Crisis ([2]; 200γ/Kg i.p.): 43.0 mg/kg; Dose of pentamethylenetetrazol, Myoclonia ([2]; 200γ/Kg i.p.): 38.1 mg/kg; Dose of pentamethylenetetrazol, Tonic Crisis ([2]; 200γ/Kg i.p.): 122.7 mg/kg; Dose of pentamethylenetetrazol, Clonic Crisis ([2]; 500γ/Kg i.p.): 45.9 mg/kg; Dose of pentamethylenetetrazol, Myoclonia ([2]; 500γ/Kg i.p.): 41.1 mg/kg; Dose of pentamethylenetetrazol, Tonic Crisis ([2]; 500γ/Kg i.p.): 134.9 mg/kg; average sleeping time ([6]; 0.5 mg/Kg i.p.): 33.9 min; average sleeping time ([6]; 1 mg/Kg i.p.): 32.9 min; average sleeping time ([6]; 2 mg/Kg i.p.): 30.6 min"
"CN(C)CC(=O)N1C2Cc3ccccc3C1c1ccccc12 (stereo not drawn) [Example 14, 12-dimethylaminoacetyl-10,11-dihydro-5,10-imino-[5H]-dibenzo (a,d) cycloheptene dl]",,,,,,,,,,,,,,,,,117%,150 mg/kg,,,total symptom score as percent of the total of control animals ([3]; 20 mg/Kg i.p.): 160%; total symptom score as percent of the total of control animals ([3]; 50 mg/Kg i.p.): 196%
